Entries after “also recorded” stand apart in the source; their conditions may differ.
Legend:
[1] = system: primary mouse keratinocytes (1° MK); assay: ET1 secretion by non-stimulated primary mouse keratinocytes (ELISA); format: cell-based
Experimental: FIGS. 8A-8D: Central role for KC TRPV4 in UVB-evoked Ca^++ signaling and nocifensive behavior—ET1-related supplementary findings. (FIG. 8A) Augmentation of GSK101-evoked Ca^++ signaling by ET1. Shown are averaged Ca^++ measurements (fura-2) in response to 5 nM GSK101. Note the increase in signal in response to co-exposure to ET1. (FIG. 8B) ET1 secretion by non-stimulated 1° MK depends on TRPV4 and PLC. Shown are relative ET1 concentrations (determined by ELISA, pg/mL; vehicle-treated and WT control normalized to 100) in supernatant of non-stimulated 1° MK. Note the clear dependence on TRPV4, as indicated by a 50% reduction in Trpv4^−/− 1° MK. […] There is also down-regulation of ET1 secretion by a specific inhibitor of PLC (U73122), and by an ET-convertase inhibitor, CGS35066, which served as a control compound. In addition, PLC-inhibitor robustly affects ET1 secretion in WT and Trpv4^−/− 1° MK. (FIG. 8C) ET1 expression by UVB-exposed 1° MK depends on TRPV4 and PLC—immunocytochemistry. Shown is specific ET1 immunolabeling in 1° MK, exposed to UVB using the UVB-LEDs, as for Ca^++ imaging. Use of the UVB-LED device precluded application of a ET1 ELISA, only irradiated cells could be examined. […] (FIG. 8D) ET1 expression by UVB-exposed 1° MK depends on TRPV4 and PLC—quantification of immunocytochemistry.

TRPV4 [2] = target: TRPV4 (Homo sapiens, UniProt Q9HBA0); assay: UVB-evoked Ca++ transient in TRPV4-transfected HEK293T cells; format: cell-based; set-up: expressed in transfected cells; settings: preexposure to 20 μM GSK205
Text: (FIG. 2B) Focusing properties of the ball lens. […] (FIG. 2E) TRPV3 activation experiment. […] (FIG. 2F) TRPV4 selective activator GSK101-related findings.
To assess whether TRPV4 is sufficient for the UVB-evoked Ca++ influx, we introduced high levels of TRPV4 into HEK293 epithelial cells. TRPV4 expression endowed these cells with the ability to generate robust Ca++ signaling in response to UVB (FIG. 2G). Moreover, if they were pre-exposed to GSK205, the response was blocked. Thus, heterologous TRPV4 expression is sufficient for UVB radiation to cause a cellular Ca++ transient.

TRPV4 [3] = target: T1, TRPV4 (Mus musculus, UniProt Q9EPK8); assay: Ca++ transients in primary mouse keratinocytes on chemical activation of TRPV4 (GSK101, 4α-PDD); format: cell-based; settings: 1° MK, 5 nM GSK101; GSK205 20 μM
T1 construct: endogenous in cells; host or cells: primary mouse epidermal keratinocytes (1° MK)
Experimental: Ca++ imaging of mouse 1° MK in response to chemical activation of TRPV4 was conducted after loading with 2 μM fura2-AM, following a ratiometric Ca2+ imaging protocol with 340/380 nm […] for dual excitation. Ratios of emissions were acquired at 0.5 Hz. ΔR/R0 was determined as the fraction of the increase of a given ratio over baseline ratio, divided by baseline ratio. For stimulation of cells with UVB, where fura-2 was not suitable because of the proximity of stimulation with 340/380 nm and 295 nm, 2 μM fluo4-AM was used instead. Ca++ imaging was carried out at 488 nm excitation, acquisition of emissions at 0.5 Hz, expressed as ΔF/F0. In the custom-built UV optical system, UV LEDs were capped with a ball lens, a transparent optical window in the shape of a hemispherical lens (FIG. 2B). The LED output optical beam focused at 15-20 mm from the lens, with a spot diameter of approximately 1.5-2.0 mm (FIG. 2C). […] The thermal equilibration stage was set for physiological temperature. We confirmed the non-thermal nature of UVB stimulation using the customized 295 nm LED device in a dedicated experiment (FIG. 2D), thus confirming the specific modality of stimulation as UVB.

[4] = system: primary mouse keratinocytes (1° MK); assay: IL-1β secreted by cultured keratinocytes after UVB exposure (ELISA); format: cell-based; settings: 5 μM GSK205
Experimental: Before UV irradiation, culture media was replaced with PBS. The cells were then irradiated at a dose of 50 mJ/cm^2 with UVB. 24 hours later, supernatants were assayed using IL-1β ELISA (R&D Systems, Minneapolis, Minn.).

[5] = system: C57BL/6J mice, caerulein-evoked acute pancreatitis; assay: Caerulein-evoked acute pancreatitis mouse model; format: in vivo; settings: 10 mg/kg i.p., 30 min before caerulein
Experimental: C57BL/6J male mice 8-10 weeks of age were subjected to acute pan-creatitis by intraperitoneal injections of supramaximal doses of caerulein (50 μg/kg) every hour for a total of 6 h, as previously described in^61. Control animals received 25% DMSO-saline solution by intraperitoneal injection every hour for 6 h. Compound 16-8 was dissolved in this vehicle (10 mg/kg) and injected i.p. 30 min prior to the first injection of caerulein. Animals were sacrificed 1 h after the last injection. Blood was collected and pancreatic tissue was promptly isolated, weighed for determination of pancreas wet weight/body weight ratio. Samples of tis-sues were fixed overnight in 10% neutral-buffered formalin, paraffin embedded and H&E-stained, or pancreatic tissue was quickly frozen and assessed for myeloperoxidase (MPO) activity. Serum amylase, MPO and histologic evaluation were conducted as described previously^61.
Assessment of nocifensive behavior^8: Mice were housed in individual cages and video-recorded during the entire experiment. Two mice at a time were observed. Linear movement was measured as one event when mice passed through the median plane of the cage. Analysis began immediately after the first caerulein/vehicle injec-tion and continued until the end of the experiment. Results were expressed as the sum of the movement events spanning the 6 h time-period following the first injection.

Sequence of TRPV4 (Homo sapiens, UniProt Q9HBA0) (Q9HBA0 whole entry, species assumed): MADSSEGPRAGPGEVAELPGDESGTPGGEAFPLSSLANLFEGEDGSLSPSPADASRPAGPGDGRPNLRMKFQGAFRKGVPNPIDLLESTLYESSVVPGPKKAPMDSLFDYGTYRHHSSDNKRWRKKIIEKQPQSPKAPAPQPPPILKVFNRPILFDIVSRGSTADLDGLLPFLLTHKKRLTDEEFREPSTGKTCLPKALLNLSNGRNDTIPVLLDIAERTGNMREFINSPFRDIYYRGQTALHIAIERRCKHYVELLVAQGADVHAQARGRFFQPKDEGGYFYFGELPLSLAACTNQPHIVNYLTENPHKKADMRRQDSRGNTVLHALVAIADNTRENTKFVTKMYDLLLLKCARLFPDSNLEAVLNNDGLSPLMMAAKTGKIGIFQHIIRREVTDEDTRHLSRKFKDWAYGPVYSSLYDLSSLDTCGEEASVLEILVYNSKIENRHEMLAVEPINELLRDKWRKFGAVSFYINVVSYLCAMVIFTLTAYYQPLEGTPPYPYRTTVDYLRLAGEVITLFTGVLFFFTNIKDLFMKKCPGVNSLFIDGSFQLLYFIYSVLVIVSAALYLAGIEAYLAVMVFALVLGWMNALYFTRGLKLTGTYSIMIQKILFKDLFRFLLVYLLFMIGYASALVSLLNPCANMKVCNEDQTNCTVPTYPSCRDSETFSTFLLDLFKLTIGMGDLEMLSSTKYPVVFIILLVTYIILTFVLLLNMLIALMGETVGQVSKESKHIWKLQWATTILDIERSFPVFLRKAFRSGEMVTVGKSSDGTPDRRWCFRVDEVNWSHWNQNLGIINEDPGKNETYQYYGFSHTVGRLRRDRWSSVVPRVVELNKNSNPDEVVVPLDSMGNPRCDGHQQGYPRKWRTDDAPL
T1 sequence (Q9EPK8 whole entry): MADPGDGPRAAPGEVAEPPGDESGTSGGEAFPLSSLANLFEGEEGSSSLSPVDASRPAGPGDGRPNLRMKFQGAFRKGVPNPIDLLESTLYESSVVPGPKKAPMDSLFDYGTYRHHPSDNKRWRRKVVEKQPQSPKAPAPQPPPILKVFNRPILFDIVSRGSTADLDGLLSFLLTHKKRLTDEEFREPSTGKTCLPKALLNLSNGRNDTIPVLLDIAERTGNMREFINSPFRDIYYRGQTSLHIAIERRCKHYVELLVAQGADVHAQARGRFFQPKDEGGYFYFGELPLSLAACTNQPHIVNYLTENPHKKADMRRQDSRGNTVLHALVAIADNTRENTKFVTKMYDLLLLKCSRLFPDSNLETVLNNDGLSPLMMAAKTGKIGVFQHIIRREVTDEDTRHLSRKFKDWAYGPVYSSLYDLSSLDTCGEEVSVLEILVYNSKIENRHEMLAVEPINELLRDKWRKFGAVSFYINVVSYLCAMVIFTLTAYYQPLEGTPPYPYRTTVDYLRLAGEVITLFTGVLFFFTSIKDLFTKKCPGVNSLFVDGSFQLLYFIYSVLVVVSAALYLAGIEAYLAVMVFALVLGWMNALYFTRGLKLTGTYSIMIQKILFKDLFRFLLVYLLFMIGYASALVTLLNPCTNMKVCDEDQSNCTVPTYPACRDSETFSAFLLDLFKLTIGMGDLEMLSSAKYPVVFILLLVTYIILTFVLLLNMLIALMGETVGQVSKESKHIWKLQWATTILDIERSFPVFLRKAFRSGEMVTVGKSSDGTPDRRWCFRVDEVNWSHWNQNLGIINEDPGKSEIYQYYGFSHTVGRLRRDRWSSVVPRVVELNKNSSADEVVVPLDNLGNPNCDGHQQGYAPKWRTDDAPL

SMILES	ET1 secretion, supernatant of non-stimulated 1° MK [1]	UVB-evoked Ca++-signal in TRPV4-transfected HEK293T cells (TRPV4 [2])	GSK101-evoked Ca++ transient (TRPV4 [3])	UVB-induced increase in IL-1β secretion by 1° MK [4]	histopathological score for pancreas inflammation [5]	myelo-peroxidase content of the pancreas [5]	pain behavior (movement events over 6 h) [5]	pancreatic edema [5]	serum amylase [5]
CN(CCc1ccc(Nc2nc(-c3cccnc3)cs2)cc1)Cc1ccccc1 [GSK205]	significant down-regulation	virtually eliminates	completely blocked	completely eliminated	–	–	–	–	–
CN(CCc1ccc(Nc2nc(-c3ccccc3)cs2)cc1)Cc1ccccc1 [Compound 16-8]	–	–	–	–	significantly reduced	significantly reduced	virtually eliminated	virtually eliminated	significantly reduced; also recorded: reduced, but not significantly
